Data published in patent US20260102502A1, “C[…] COMPOSITIONS FOR TARGETED […]” (priority 2022, published 2026).

Experiment: water solubility of free drug and dendrimer-drug conjugates

Q: For CCCCCCC(C)(C)c1cc(OC)c([C@@H]2C=C(CO)[C@@H]3C[C@H]2C3(C)C)c(OC)c1 [Hu308], which “Water Solubility Free drug*” value (free, unconjugated drug of GD-Hu308 (Table 4)) is on record?
A: Its value is less than 100 µg/mL.

Q: And the solubility (water)?
A: Its solubility is less than 100 µg/mL.
